In patent publication US20250257041A1, “INDUCERS OF INTEGRATED STRESS RESPONSE TO TREAT CANCER” (The Board of Regents of The University of Texas System, priority 2022, published 2025):
Where two headings read alike, the source gives them in different places.

Tests used:
RPS23 = biological target: T1, RPS23 (Homo sapiens, UniProt P62266); experiment: Photo-crosslinking in HCT116 cells, biotin-azide click, streptavidin pull-down, western blot for RPS23; format: binding; details: HCT116 wild-type or RPS23 del R107-G109 mutant, UV irradiation
T1 construct: endogenous in cells; host or cells: HCT116
Protocol: Next HCT116 cells were incubated with SW393071 analogs conjugated to a photo-crosslinker (analogs: SW393065, SW393212 and SW393213), and irradiated with UV light. The cells were lysed and click-conjugated to biotin-azide. Drug-bound proteins were pulled down with streptavidin coated beads and resolved on an SDS-PAGE gel.
Wild-type or RPS23 del R107-G109 knock-in mutant HCT116 cells were incubated with photo-crosslinker analog SW393212 and irradiated with UV light. The cells were lysed, and click-conjugated to biotin-azide essentially as shown in Example 7. Drug-bound proteins were pulled down with streptavidin coated beads and resolved on an SDS-PAGE gel.

HCT116 WT = experiment: Proliferation of HCT116 colorectal cell line, Cell TiterGlo; format: cell-based, human
Outline: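 Cell viability by CellTiter-Glo in parental HCT116, in a GCN2-knockout line, and in parental cells co-treated with ISRIB. IC50 from triplicate 10-point titrations; repeated values come from separate runs.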

phospho-GCN2 = experiment: Western blot for phospho-GCN2 in HCT116 wild-type and RPS23 mutant cells; format: cell-based, human; details: wild-type HCT116 versus RPS23 del R107-G109 mutant
Protocol: FIG. 12 is a western blot analysis showing the RPS23 is required for induction of GCN2 phosphorylation by SW710 (SW388710). Cells were incubated with SW710, lysed, then evaluated via western blot for phospho-GCN2, a marker of activation of the integrated stress response.
To confirm this hypothesis, wild-type HCT116 cells and HCT116 RPS23 del R107-G109 mutant cells were incubated with SW388710. Cells were lysed and evaluated via western blot for phospho-GCN2, a marker of activation of the integrated stress response.

Jurkat cells = experiment: Jurkat cell proliferation over three days, Cell Titer Glo; format: cell-based, human
Protocol: (§1) FIG. 5A provides cell proliferation studies using Jurkat cells using exemplary novel compounds provided in the current disclosure. Jurkat cells, which are derived from a human leukemia, were incubated with varying concentrations of SW388710. Cell proliferation over three days was evaluated using luminescence from Cell Titer Glo (Promega) which reflects ATP levels.
as §1, with “5B” for “5A”, “SW393071.” for “SW388710.”

Jurkat (Leukemia) cells = experiment: Jurkat viability and cytotoxicity, GF-AFC and Cytox; format: cell-based, human; details: varying doses
Protocol: FIG. 6A provides cytotoxicity studies for leukemia cells (Jurkat) with compound SW388710. […] Jurkat (Leukemia) cells were incubated with varying doses of SW388710.

HCT116 GCN2KO = experiment: Proliferation of HCT116 cells with GCN2 knocked out (CRISPR), Cell TiterGlo; format: cell-based, human; details: for IC50: Homo sapiens
Protocol: Briefly, compounds were tested for their effect on proliferation of HCT116 colorectal cell lines using Cell TiterGlo (Promega). Each compound was tested in a 10-point dose response experiment in triplicate. Multiple values in the column titled HCT116 WT reflect separate independent experiments. The three columns titled “HCT116 WT (repeat)”, “HCT116-CGN2KO” and “HCT116 WT+ISRIB” provide data for selected compounds that were tested simultaneously under three conditions. The HCT116 WT column lists IC50 against the wild type HCT116 colorectal cancer cell line. The HCT116-CGN2KO lists IC50 data for cells in which one component of the integrated stress response, GCN2, has been knocked out using CRISPR technology.

[1] = test system: HCT-116 (colorectal) cells; experiment: HCT-116 viability and cytotoxicity, GF-AFC and Cytox; format: cell-based, human; details: varying doses
Protocol: FIG. 6B provided cytostatic data for colorectal cells, with compound SW388710. […] HCT-116 (colorectal) cells were incubated with varying doses of SW388710.

[2] = Solubility remark printed in the HCT116 WT column; format: physicochemical; details: cell wraps over r19 and r20: poor solubility
[3] = Homo sapiens, HCT-116, wild type HCT116, 10-point dose response in triplicate, multiple values = separate independent experiments, read-out: HCT116 IC50 (uM) HCT116 WT
[4] = Homo sapiens, HCT-116, wild type HCT116, tested simultaneously with GCN2KO and +ISRIB, read-out: HCT116 IC50 (uM) HCT116 WT (repeat)
[5] = wild type HCT116, compound plus 10 nM of ISRIB, read-out: HCT116 IC50 (uM) HCT116 WT + ISRIB
[6] = HCT-116, HCT116 cells with GCN2 knocked out using CRISPR, read-out: HCT116 IC50 (uM) HCT116 − GCN2KO

| IC50 (HCT116 WT; [3]) [µM] | IC50 (HCT116 WT; [4]) [µM] | IC50 (HCT116 WT; [5]) [µM] | IC50 (HCT116 GCN2KO; [6]) [µM] | SMILES | further results |
| --- | --- | --- | --- | --- | --- |
| 0.72 | – | – | – | C#Cc1cccc(C(=O)Nc2cc(-c3ccc(NC(=O)c4cc(N=[N+]=[N-])ccc4Cl)cc3)nn2C)c1 [SW393212, 5-Azido-2-chloro-N-(4-(5-(3-ethynylbenzamido)-1-methyl-1H-pyrazol-3-yl)phenyl)benza-mide] | RPS23 bands after photo-crosslinking pull-down (RPS23): bands from WT but not RPS23 mutant cells |
| 0.23 | 0.21 | 1.89 | 1.95 | COc1cccc(C(=O)Nc2cc(-c3ccc(NC(=O)c4ccccc4)cc3)nn2C)c1 [SW388710, N-(3-(4-Benzamidophenyl)-1-methyl-1H-pyrazol-5-yl)-3-methoxybenzamide] | Activation of the ISR (phosphorylation of GCN2) (phospho-GCN2): Wild-type but not RPS23 mutant cells, showed activation of the ISR; IC50 (Jurkat cells; Homo sapiens, Jurkat, 72 h, three days, Cell Titer Glo luminescence): 0.0782 µM; Effect of ISRIB on anti-proliferative activity in Jurkat cells (Jurkat cells; addition of 10 nM of ISRIB): relative resistance; Cell death in leukemic cells (Jurkat (Leukemia) cells): induces cell death in leukemic cells; Resistance on knockout of GCN2 (HCT116 GCN2KO; HCT116, GCN2 but not other activating kinases): confers resistance; Proliferation of colorectal cancer cells [1]: reduces the proliferation of colorectal cancer cells |
| – | – | – | – | Cn1nc(-c2ccc(NC(=O)c3ccccc3)cc2)cc1NC(=O)c1ccc(C(=O)c2ccccc2)cc1 [SW389003, N-(3-(4-Benzamidophenyl)-1-methyl-1H-pyrazol-5-yl)-4-benzoylbenzamide] | Solubility (remark in place of an IC50) [2]: poor; IC50 (HCT116 WT; Homo sapiens, HCT-116, read-out: HCT116 IC50 (uM) HCT116 WT (repeat)): ≥ 50 µM; IC50 (HCT116 GCN2KO; HCT-116, read-out: HCT116 IC50 (uM) HCT116 − GCN2KO): ≥ 50 µM |
| 0.92 | 1.87 | – | ≥ 50 | COC(=O)c1ccc(C(=O)Nc2cc(-c3ccc(NC(=O)c4ccccc4)cc3)nn2C)cc1 [SW393130, methyl 4-((3-(4-benzamidophenyl)-1-methyl-1H-pyrazol-5-yl)carbamoyl)benzoate] | – |
| 0.01 | 0.06 | 0.49 | 0.41 | CSc1ccccc1C(=O)Nc1ccc(-c2cc(NC(=O)c3ccccc3)n(C)n2)cc1 [SW393169, N-(4-(5-benzamido-1-methyl-1H-pyrazol-3-yl)phenyl)-2-(methylthio)benzamide] | – |
| > 50 | ≥ 50 | – | ≥ 50 | C#Cc1ccc(C(=O)Nc2cc(-c3ccc(NC(=O)c4ccccc4)cc3)nn2C)cc1 [SW389008, N-(3-(4-Benzamidophenyl)-1-methyl-1H-pyrazol-5-yl)-4-ethynylbenzamide] | – |
| 3.32 | 7.17 | 25.8 | 32.9 | Cn1nc(-c2ccc(NC(=O)c3ccccn3)cc2)cc1NC(=O)c1ccccc1 [SW393126, N-(4-(5-benzamido-1-methyl-1H-pyrazol-3-yl)phenyl)picolinamide] | – |
| 14 | 8 | – | ≥ 50 | COC(=O)c1ccc(C(=O)Nc2ccc(-c3cc(NC(=O)c4ccccc4)n(C)n3)cc2)cc1 [SW393073, methyl 4-((4-(5-benzamido-1-methyl-1H-pyrazol-3-yl)phenyl)carbamoyl)benzoate] | – |
| 0.19 | 0.49 | 2.33 | 2.78 | Cn1nc(-c2ccc(NC(=O)c3cc(N=[N+]=[N-])ccc3Cl)cc2)cc1NC(=O)c1ccccc1 [SW393171, 5-azido-N-(4-(5-benzamido-1-methyl-1H-pyrazol-3-yl)phenyl)-2-chlorobenzamide] | – |
